In brackets after ≈: the same amount, converted by molar mass. Read-outs that look alike come from different tables or passages of the source.
Assay: Solubility of UV absorber in oil comprising ionic liquid
Assay type: physicochemical
Details: for solubility: 21 °C, thermodynamic from solid, read-out: Solubility of Tinosorb ® S with Cetiol ® B as oil; for Solubility of Uvinul ® T150 with Cetiol ® B as oil: 21° C.
Experimental: For this, increasing amounts of active ingredient were added stepwise to oil (Cetiol® B or Solvesso®), which comprised the ionic liquid, until the maximum solubility was reached. Alternatively, the oil, which comprised the ionic liquid, was saturated with the active ingredient and the soluble fraction of active ingredient was quantified by means of HPLC.

CCCCC(CC)COc1ccc(-c2nc(-c3ccc(OC)cc3)nc(-c3ccc(OCC(CC)CCCC)cc3O)n2)c(O)c1 (centres unmarked) [Tinosorb ® S, bis-ethylhexyloxyphenol methoxyphenyl triazine]
solubility (neat ionic liquid (no oil), organic solvent or mixture, 100 IL (no oil), IL N-butyl-N′-methylimidazolium acetate): 1 mg/mL (≈ 1590 µM)
solubility (neat ionic liquid (no oil), organic solvent or mixture, 100 IL (no oil), IL N-ethyl-N′-ethylimidazolium heptanoate): 1 mg/mL (≈ 1590 µM)
solubility (neat ionic liquid (no oil), organic solvent or mixture, 100 IL (no oil), IL N-ethyl-N′-ethylimidazolium octanoate): 1 mg/mL (≈ 1590 µM)
solubility (neat ionic liquid (no oil), organic solvent or mixture, 100 IL (no oil), IL N-ethyl-N′-methylimidazolium isononanoate): 9.5 mg/mL (≈ 15100 µM)
solubility (neat oil (no ionic liquid), oil or lipid, 100 Oil (Cetiol B, no IL)): 6.2 mg/mL (≈ 9880 µM)
solubility (oil/ionic liquid mixture, oil or lipid, Oil/IL 20/80 weight ratio, IL N-butyl-N′-methylimidazolium acetate): 12.4 mg/mL
solubility (oil/ionic liquid mixture, oil or lipid, Oil/IL 20/80 weight ratio, IL N-ethyl-N′-ethylimidazolium octanoate): 16.7 mg/mL
solubility (oil/ionic liquid mixture, oil or lipid, Oil/IL 20/80 weight ratio, IL N-ethyl-N′-methylimidazolium isononanoate): 19.2 mg/mL
solubility (oil/ionic liquid mixture, oil or lipid, Oil/IL 60/40 weight ratio, IL N-butyl-N′-methylimidazolium acetate): 14.3 mg/mL
solubility (oil/ionic liquid mixture, oil or lipid, Oil/IL 60/40 weight ratio, IL N-ethyl-N′-ethylimidazolium heptanoate): 21.9 mg/mL
solubility (oil/ionic liquid mixture, oil or lipid, Oil/IL 60/40 weight ratio, IL N-ethyl-N′-ethylimidazolium octanoate): 21.9 mg/mL
solubility (oil/ionic liquid mixture, oil or lipid, Oil/IL 60/40 weight ratio, IL N-ethyl-N′-methylimidazolium isononanoate): 22.4 mg/mL
solubility (oil/ionic liquid mixture, oil or lipid, Oil/IL 90/10 weight ratio, IL N-butyl-N′-methylimidazolium acetate): 11.7 mg/mL
solubility (oil/ionic liquid mixture, oil or lipid, Oil/IL 90/10 weight ratio, IL N-ethyl-N′-ethylimidazolium heptanoate): 13 mg/mL
solubility (oil/ionic liquid mixture, oil or lipid, Oil/IL 90/10 weight ratio, IL N-ethyl-N′-ethylimidazolium octanoate): 13 mg/mL
solubility (oil/ionic liquid mixture, oil or lipid, Oil/IL 90/10 weight ratio, IL N-ethyl-N′-methylimidazolium isononanoate): 13.8 mg/mL

CCCCC(CC)COC(=O)c1ccc(Nc2nc(Nc3ccc(C(=O)OCC(CC)CCCC)cc3)nc(Nc3ccc(C(=O)OCC(CC)CCCC)cc3)n2)cc1 (centres unmarked) [Uvinul ® T150, 2,4,6-trianilino-p-(carbo-2′-ethylhexyl-1′-oxy)-1,3,5-triazine]
Solubility of Uvinul ® T150 with Cetiol ® B as oil (100 IL (no oil), IL Cholinium [2-(2-methoxyethoxy)ethoxy]acetate): 1 mg/mL
Solubility of Uvinul ® T150 with Cetiol ® B as oil (100 IL (no oil), IL N-butyl-N′-methylimidazolium acetate): 5 mg/mL
Solubility of Uvinul ® T150 with Cetiol ® B as oil (100 IL (no oil), IL N-ethyl-N′-ethylimidazolium propionate): 5 mg/mL
Solubility of Uvinul ® T150 with Cetiol ® B as oil (100 IL (no oil), IL N-ethyl-N′-methylimidazolium acetate): 1 mg/mL
Solubility of Uvinul ® T150 with Cetiol ® B as oil (100 IL (no oil), IL N-ethyl-N′-methylimidazolium isononanoate): 1 mg/mL
Solubility of Uvinul ® T150 with Cetiol ® B as oil (100 Oil (Cetiol B, no IL)): 14.2 mg/mL
Solubility of Uvinul ® T150 with Cetiol ® B as oil (Oil/IL 20/80 weight ratio, IL N-butyl-N′-methylimidazolium acetate): 41.5 mg/mL
Solubility of Uvinul ® T150 with Cetiol ® B as oil (Oil/IL 20/80 weight ratio, IL N-ethyl-N′-ethylimidazolium propionate): 44.1 mg/mL
Solubility of Uvinul ® T150 with Cetiol ® B as oil (Oil/IL 20/80 weight ratio, IL N-ethyl-N′-methylimidazolium acetate): 40.8 mg/mL
Solubility of Uvinul ® T150 with Cetiol ® B as oil (Oil/IL 20/80 weight ratio, IL N-ethyl-N′-methylimidazolium isononanoate): 34.8 mg/mL
Solubility of Uvinul ® T150 with Cetiol ® B as oil (Oil/IL 60/40 weight ratio, IL N-butyl-N′-methylimidazolium acetate): 54.1 mg/mL
Solubility of Uvinul ® T150 with Cetiol ® B as oil (Oil/IL 60/40 weight ratio, IL N-ethyl-N′-ethylimidazolium propionate): 54.3 mg/mL
Solubility of Uvinul ® T150 with Cetiol ® B as oil (Oil/IL 60/40 weight ratio, IL N-ethyl-N′-methylimidazolium acetate): 52.8 mg/mL
Solubility of Uvinul ® T150 with Cetiol ® B as oil (Oil/IL 60/40 weight ratio, IL N-ethyl-N′-methylimidazolium isononanoate): 45.7 mg/mL
Solubility of Uvinul ® T150 with Cetiol ® B as oil (Oil/IL 90/10 weight ratio, IL Cholinium [2-(2-methoxyethoxy)ethoxy]acetate): 21.3 mg/mL
Solubility of Uvinul ® T150 with Cetiol ® B as oil (Oil/IL 90/10 weight ratio, IL N-butyl-N′-methylimidazolium acetate): 37.5 mg/mL
Solubility of Uvinul ® T150 with Cetiol ® B as oil (Oil/IL 90/10 weight ratio, IL N-ethyl-N′-ethylimidazolium propionate): 33.3 mg/mL
Solubility of Uvinul ® T150 with Cetiol ® B as oil (Oil/IL 90/10 weight ratio, IL N-ethyl-N′-methylimidazolium acetate): 37.5 mg/mL
Solubility of Uvinul ® T150 with Cetiol ® B as oil (Oil/IL 90/10 weight ratio, IL N-ethyl-N′-methylimidazolium isononanoate): 32.4 mg/mL
